In US8389680B2, “Treatment of Aspergillus infections with alpha thymosin peptides” (SciClone Pharmaceuticals, Inc., priority 2003, dated 2013):
Entries after “also recorded” stand apart in the source; their conditions may differ.

Legend:
[1] = tested on: A. fumigatus; assay: BMT mice with invasive aspergillosis: survival, fungal growth in lungs (chitin assay), lung histology; type: in vivo
Source text: For infection with A. fumigatus, mice were intranasally injected for 3 consecutive days with a suspension of 2×10^7 conidia/20 microliter saline. For the quantification of fungal growth in the lungs, the chitin assay was used. The chitin content was expressed as micrograms of glucosamine per organ. The glucosamine content of lungs from uninfected mice was used as a negative control ranging between 0.80 and 2.25 microgram glucosamine/organ. For histological analysis, lungs were excised and immediately fixed in formalin. Sections (3 to 4 micron) of paraffin-embedded tissues were stained with the periodic acid-Schiff procedure. Thymosin alpha 1 (TA1) and the scrambled polypeptide are as purified sterile lyophilized acetylated polypeptides with endotoxin levels less than 0.03 pg/ml, by a standard limulus lysate assay. The sequences were as follows: Ac-[…]O (Thymosin alpha 1, SEQ ID NO.: 1) and Ac-[…]OH ([…]). Their lyophilized powders were reconstituted in sterile water.
The treatments were as follows; in BMT-mice, TA1, at different doses administered intraperitoneally, sthymosin alpha 1, 400 microgram/kg administered intraperitoneally or human recombinant G-CSF 250 microgram/kg administered intravenously, were given daily beginning the day of the BM infusion, in concomitance with the infection and continuing for an additional 3 days. Amphotericin B was given daily for 3 days in concomitance with the infection, at a dose of 4000 microgram/kg, administered intraperitoneally. This dose would cure IA in cyclophosphamide-treated mice. Cyclophosphamide, 150 mg/kg administered intraperitoneally, was given a day before the infection. In cyclophosphamide-treated mice, 400 microgram/kg TA1 was given intraperitoneally for 5 consecutive days beginning the day of the infection.
C57BL6 mice were exposed to a lethal dose of 9 Gy and infused with T cell-depleted donor cells from BALB/c mice.

[2] = target: T1, TLR4/CD14 (Homo sapiens, UniProt O00206); assay: IL-8 production by TLR4/CD14-transfected HEK293 cells; type: cell-based
T1 construct: expressed in transfected cells; host or cells: HEK293
T1 sequence (O00206 24-839): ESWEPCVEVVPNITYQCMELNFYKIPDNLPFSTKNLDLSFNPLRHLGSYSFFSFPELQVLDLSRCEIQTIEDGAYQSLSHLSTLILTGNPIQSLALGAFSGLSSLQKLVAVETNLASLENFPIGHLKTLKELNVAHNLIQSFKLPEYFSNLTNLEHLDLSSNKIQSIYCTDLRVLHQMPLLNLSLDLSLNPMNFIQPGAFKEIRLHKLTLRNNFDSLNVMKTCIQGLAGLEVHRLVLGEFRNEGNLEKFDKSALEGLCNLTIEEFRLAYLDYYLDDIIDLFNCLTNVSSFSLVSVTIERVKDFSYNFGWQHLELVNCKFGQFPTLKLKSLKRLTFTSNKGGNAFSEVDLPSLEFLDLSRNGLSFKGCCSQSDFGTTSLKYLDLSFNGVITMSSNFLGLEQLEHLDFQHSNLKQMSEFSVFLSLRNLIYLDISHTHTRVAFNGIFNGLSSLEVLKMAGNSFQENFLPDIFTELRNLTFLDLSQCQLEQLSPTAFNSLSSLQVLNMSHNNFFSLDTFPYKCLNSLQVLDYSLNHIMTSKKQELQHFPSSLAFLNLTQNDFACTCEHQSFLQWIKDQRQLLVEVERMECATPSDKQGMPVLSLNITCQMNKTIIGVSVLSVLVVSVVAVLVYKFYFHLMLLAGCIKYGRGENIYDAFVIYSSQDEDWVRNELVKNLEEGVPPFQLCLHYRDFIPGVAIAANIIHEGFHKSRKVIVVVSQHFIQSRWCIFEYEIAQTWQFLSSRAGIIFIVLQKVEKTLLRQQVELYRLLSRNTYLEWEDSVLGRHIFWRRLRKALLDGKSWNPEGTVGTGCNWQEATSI
Experimental: The human embryonic kidney cell line HEK293, wild type or stably transfected with human TLR2, TLR9 and TLR4/CD1427 were cultured in low glucose Dulbecco's modified Eagle's medium supplemented with 10% FCS, HEPES ([…]), L-glutamine ([…]), and gentamycin (50 microgram/ml). Transfectants were additionally supplemented with puromycin (100 microgram/ml). For stimulation experiments, cells were cultured at a density of 3 to 5×10^5 cells/wells in 12-well tissue culture plates overnight. Cells were washed and stimulated with 100 ng/ml TA1 either alone or together with TLR ligands for 5 h before the assessment of IL-8 production in the supernatants.
The levels of TNF-alpha, IL-10, IL-12 p70, IFN-alpha and IL-8 in culture supernatants were determined by Kit ELISAs. The detection limits (pg/ml) of the assays were <3 (human) and <32 (murine) for TNF-alpha, <12 (murine) and <5 (human) for IL-10, <16 (murine) and <3 (human) for IL-12 p70 and <25 (human) IL-8. For human IFN-alpha <3 ng/ml. For enumeration of cytokine-producing cells, an ELISPOT assay was used on purified CD4^+ T cells and DCs from lungs.

[3] = mice treated with both agents (TA1 and amphotericin B)

For “Ac-Ser-Asp-Ala-Ala-Val-Asp-Thr-Ser-Ser-Glu-Ile-Thr-Thr-Lys-Asp-Leu-Lys-Glu-Lys-Lys-Glu-Val-Glu-Glu-Ala-Glu-Asn-O (Ac-SDAAVDTSSEITTKDLKEKKEVEEAEN-OH) [TA1, naturally occurring thymic peptide]”, the “protection compared with amphotericin B” value ([1]; 200 and 400 microgram/kg TA1, amphotericin B 4000 microgram/kg) was “superior to that of amphotericin B”, the “survival (full protection)” value ([1]; 200 microgram/kg TA1) was over 60 days and the “survival (full protection)” value ([1]; 400 microgram/kg TA1) was over 60 days. The “fungal growth in the lungs” value ([1]; BMT mice with IA) was “dose-responsive reduction; also recorded: reduced fungal growth”, the survival ([1]; BMT mice with IA) was “increased survival” and the “effect on protection, dose relation” value ([1]; BMT mice with IA, different doses) was “dose-dependent”. For the same substance, the “cure of BMT mice with IA” value ([1]; intraperitoneally, daily) was “complete cure; also recorded: able to cure”, the lung pathology ([1]; lung sections, periodic acid-Schiff) was “decreases lung pathology” and the “effect on therapeutic efficacy of amphotericin B” value ([1]; mice treated with both agents) was “increases the therapeutic efficacy of amphotericin B”. The fungal burden [1, 3] was “decreased fungal burden”, the survival [1, 3] was “increased survival” and the “production of IL-8” value ([2]; TA1 alone) was “did not induce”. For the same substance, the “production of IL-8” value ([2]; in response to the TLR4 ligand LPS) was “did not induce”.
